Experimental data as given in paper PMC9501810, “Bitter Peptides YFYPEL, [sequence], and [sequence], Released during Gastric Digestion of Casein, Stimulate Mechanisms of Gastric Acid Secretion via Bitter Taste Receptors TAS2R16 and TAS2R38” (Journal of Agricultural and Food Chemistry, 2022).

Key:
[1] = test system: HGT-1 cells; test: Proton secretion assay (intracellular proton index IPX, SNARF-1-AM); format: cell-based, human; details: for ΔIPX (change in intracellular proton index vs untreated cells): 10 min incubation in KRHB, mean ± SEM, n = 4–8
Description: The measurement of proton secretion from HGT-1 cells represents a well-established model for the identification of bitter compounds. By affecting extraoral bitter taste receptors with bitter compounds, a modulatory effect on proton secretion can be measured. For this purpose, cells were washed with KRHB and incubated with 3 μM of the intracellular pH indicator 1,5 carboxy-seminaphto-rhodafluor acetoxymethyl ester (SNARF-1-AM) under standard conditions. After 30 min, the cells were washed again with KRHB and then incubated with casein (0.01–10 μM equimolar related to the relevant forms αS1- and β-casein), hydrolysate (0.01–10 μM), or the peptides (0.01–200 μM). […] All substances were dissolved and diluted in KRHB. 1 mM histamine was used as a positive control. Measurements were performed using FlexStation 3 (Molecular Devices, USA). The excitation wavelength was 488 nm, and the emission wavelengths were 580 and 640 nm. For calibration (pH range 7.0–8.0), the intracellular and extracellular pH was adjusted with 2 μM nigericin in potassium buffer (20 mM NaCl, 110 mM KCl, 1 mM CaCl2, 1 mM MgSO4, 18 mM D-glucose, and 20 mM HEPES). The intracellular proton index (IPX) was calculated as the log2 value of the 580/640 ratio and compared with cells without treatment. Negative values represent increased secretion of protons and therefore stimulation of mechanisms regulating gastric acid secretion in HGT-1 cells. In contrast, positive values represent an inhibition of secretion compared to the untreated control.

[2] = test system: pepsin; test: In vitro gastric digestion of casein with targeted UHPLC-MS/MS-MRM quantitation of peptides; format: in vitro ADME, porcine; details: 37 °C, n = 4; for degradation of the peptide during further in vitro gastric digestion: SGF pH 3 with pepsin, up to 6 h
Description: The in vitro digestion was based on the Nature protocol established by Brodkorb et al.([30]) For this, simulated salivary fluid (SSF, containing 15.1 mM KCl, 3.7 mM KH2PO4, 13.6 mM NaHCO3, 0.15 mM MgCl2(H2O)6, 0.06 mM (NH4)2CO3, 1.1 mM HCl, and 1.5 mM CaCl2(H2O)2) and simulated gastric fluid (SGF, containing 6.9 mM KCl, 0.9 mM KH2PO4, 25.0 mM NaHCO3, 47.2 mM NaCl, 0.12 mM MgCl2(H2O)6, 0.5 mM (NH4)2CO3, 15.6 mM HCl, and 0.15 mM CaCl2(H2O)2) were prepared. A total amount of 100 mg casein was suspended in 3 mL of SSF and incubated for 5 min at 37 °C in the tube rotator. After taking a sample (500 μL, t = 0 h), 2 mL of SGF was added and the pH was adjusted to 3 with 100 μL of HCl (1 M). After addition of 125 μL of pepsin solution (80,000 U/mL in 10 mM HCl), 275 μL of H2O was added to fill up to 5 mL. This was followed by further incubation at 37 °C in a tube rotator for 6 h. 500 μL of samples was taken at 0.25, 0.5, 0.75, 1, 2, 3, 4, 5, and 6 h, respectively. The samples were frozen in liquid nitrogen and stored at −80 °C until further analysis. For MS experiments, all samples were diluted 1:1 with 10% MeCN.
All targeted proteomics LC–MS/MS measurements were performed using a Sciex ExionLC AC (Sciex, Darmstadt, Germany) coupled to a 6500+ QTrap LC–MS/MS system (Sciex, Darmstadt, Germany) operating in the positive electrospray ionization mode. Data acquisition and instrumentation control were performed with AnalystTF software (v 1.7.1; Sciex, Darmstadt, Germany). Separation was performed using a 100 × 2.1 mm, 1.7 μm, Kinetex C18 column (Phenomenex, Aschaffenburg, Germany) with a guard column of the same type with 0.1% aqueous formic acid and acetonitrile containing 0.1% formic acid at a flow rate of 0.25 mL/min. The gradient was based on the following scheme: 0 min, 15% B; 7 min, 40% B; 7.5 min, 98% B; 10.5 min, 98% B; 10.8 min, 15% B; and 15 min, 15% B. The column oven temperature was set at 40 °C, and the injection volume was 1 μL per sample. For MS/MS measurements, the same parameters were used for all samples (ion spray voltage […], source temperature 450 °C, nebulizing gas 60 psi, and heating gas 30 psi). Nitrogen was set to 35 psi and served as a curtain gas to effectively dissolve the ions. To optimize the parameters DP, CE, and collision cell exit potential for each peptide and transition (Supporting Information Table-SI 2), standard solutions of the five synthesized peptides were injected directly into the MS ion source. Ionization parameters were optimized in positive ESI mode using AnalystTF software (v 1.7.1; Sciex, Darmstadt, Germany). For the preparation of the calibration curves, five peptides were dissolved individually in D2O (600 μL) and the concentration of the stock solutions was determined by qNMR.[35] For each peptide, seven calibration solutions (0.5, 1, 5, 10, 50, 100, and 200 μM) were diluted in 5% MeCN from these stock solutions. The data were analyzed using MultiQuant software (v 3.0.3; Sciex, Darmstadt, Germany).

[3] = test system: Caco-2 cell monolayers; details: Caco-2; cited from earlier work
Excerpt: In addition, transport through Caco-2 cell monolayers was ...

[4] = Solubility of casein in the proton secretion assay; format: physicochemical; details: casein in KRHB, concentrations above 10 µM could not be investigated

Substance | concentrations at which a significant ΔIPX was found ([1]; tested 0.01–200 µM, 10 min) | highest concentration released during in vitro digestion ([2]; 100 mg casein, SSF then SGF pH 3 with pepsin, 0–6 h, mean) | degradation of the peptide during further in vitro gastric digestion [2] | transport through Caco-2 cell monolayers [3] | ΔIPX (change in intracellular proton index vs untreated cells) ([1]; 0.1 µM, IPX = log2 of 580/640 ratio, negative = stimulated proton secretion) | ΔIPX (change in intracellular proton index vs untreated cells) ([1]; 5 µM, positive = inhibited proton secretion) | ΔIPX (change in intracellular proton index vs untreated cells) ([1]; 10 µM, negative = stimulated, positive = inhibited proton secretion) | change in mean IPX ([1]; casein concentrations below 5 µM (0.01–<5 µM, equimolar related to αS1- and β-casein)) | solubility [4]
PVVVPPFLQPEVM | at 1 and 10 μM only | up to 148.7 μM | not further degraded | transport through Caco-2 cell monolayers was observed |  |  |  |  | 
YYVPLGTQ [bitter casein peptide αS1-CN165–172] |  |  | no noticeable degradation |  | −0.166 ± 0.017 |  |  |  | 
casein |  |  |  |  |  | +0.212 ± 0.029 | +0.441 ± 0.037 | No significant change | poor solubility
